The target of this assay is T1, human calpain 1 protease (HCAN1) (Homo sapiens, UniProt P07384).
T1 construct: gene CAPN1; with Calpain small subunit 1
T1 sequence (P07384 2-714): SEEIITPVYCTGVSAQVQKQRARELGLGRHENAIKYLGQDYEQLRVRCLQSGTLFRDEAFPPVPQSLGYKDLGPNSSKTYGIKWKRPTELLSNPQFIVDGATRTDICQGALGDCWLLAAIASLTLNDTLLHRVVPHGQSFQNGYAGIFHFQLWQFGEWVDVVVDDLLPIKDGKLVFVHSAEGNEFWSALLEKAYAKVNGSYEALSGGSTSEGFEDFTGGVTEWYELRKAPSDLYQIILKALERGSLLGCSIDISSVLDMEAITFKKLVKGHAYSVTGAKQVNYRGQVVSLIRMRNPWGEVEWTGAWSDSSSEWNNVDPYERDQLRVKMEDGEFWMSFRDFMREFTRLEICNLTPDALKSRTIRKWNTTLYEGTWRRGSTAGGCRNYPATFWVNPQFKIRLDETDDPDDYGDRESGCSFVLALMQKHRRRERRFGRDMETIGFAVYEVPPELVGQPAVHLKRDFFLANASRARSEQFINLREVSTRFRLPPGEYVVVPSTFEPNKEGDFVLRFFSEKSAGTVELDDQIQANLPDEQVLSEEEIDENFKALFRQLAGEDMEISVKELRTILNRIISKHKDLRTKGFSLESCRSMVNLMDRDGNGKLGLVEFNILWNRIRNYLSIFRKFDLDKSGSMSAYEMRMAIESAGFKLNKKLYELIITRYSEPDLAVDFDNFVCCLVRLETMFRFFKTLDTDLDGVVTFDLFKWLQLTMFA
T1 sequence (P04632 1-268 partner): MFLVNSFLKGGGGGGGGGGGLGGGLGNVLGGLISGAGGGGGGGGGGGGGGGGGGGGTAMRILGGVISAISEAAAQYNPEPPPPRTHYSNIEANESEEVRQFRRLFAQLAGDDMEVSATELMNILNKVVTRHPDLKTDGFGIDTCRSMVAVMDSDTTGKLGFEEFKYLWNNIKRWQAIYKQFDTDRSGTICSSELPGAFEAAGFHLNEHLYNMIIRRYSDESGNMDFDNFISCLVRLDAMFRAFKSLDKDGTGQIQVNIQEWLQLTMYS
The assay can be described thus: fluorescence calpain activity assay kit (Ac-LLY-AFC). The format is biochemical.

Read-outs that look alike come from different tables or passages of the source.

On to Thalassospiramide C [compound 4], for which the IC50 (Ac-LLY-AFC substrate, 37 °C, 1 h, covalent (Michael addition to Cys115)) worked out at 3.4 ± 1.2 nM.

Take `CCCCCCCCCC(=O)N[C@@H](CO)C(=O)N[C@H](C(=O)N[C@@H](CO)[C@@H](O)CC(=O)N[C@H](C(=O)N[C@@H]1CCC(=O)N[C@@H](C(C)C)C(=O)N(C)[C@@H](Cc2ccc(O)cc2)C(=O)OC1)C(C)C)C(C)C` [compound 3, 3]: the IC50 was over 5000 nM.

Usually IC50 stands for the midpoint of a concentration-inhibition curve. High values mean a need for much substance, low ones inhibition by little substance.

Source of the values: paper PMC4350077, “Mechanism of Action of Thalassospiramides, A New Class of Calpain Inhibitors” (Scientific Reports, 2015).
